From patent publication US12077503B2, “Substituted cyclic amides and their use as herbicides” (FMC CORPORATION, priority 2015, dated 2024)
Like-named read-outs stand apart in the source and are kept apart here.

Tests used:
Format in all cases: in vivo
[1] = tested on: barnyardgrass (Echinochloa crus-galli); assay: Test A preemergence; conditions: Echinochloa crus-galli, pre-emergence, 240 h; for pest or weed control at 125 g/ha: 125 g ai/ha, preemergence, 0 to 100 scale where 0 is no effect and 100 is complete control, read-out: Barnyardgrass plant response rating; for pest or weed control at 500 g/ha: 500 g ai/ha, Preemergence, visual injury vs untreated controls after approximately 10 d, read-out: Barnyardgrass plant response rating (0 to 100 scale where 0 is no effect and 100 is complete control)
Procedure, shortened: (§1)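 Seeds sprayed preemergence with a directed soil spray, or plants at 2 to 10 cm height and one- to two-leaf stage sprayed postemergence, with test chemicals in a non-phytotoxic solvent mixture containing surfactant, in loam soil–sand blend. Injury rated visually against untreated controls after about 10 d in greenhouse, 0 (no effect) to 100 (complete control).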

[2] = tested on: blackgrass (Alopecurus myosuroides); assay: Test A postemergence; conditions: Alopecurus myosuroides, post-emergence, 240 h, 125 g ai/ha
Procedure, shortened: as §1

[3] = tested on: giant foxtail (Setaria faberii); assay: Test A postemergence; conditions: Setaria faberi, post-emergence, 240 h, 125 g ai/ha
Procedure, shortened: as §1

[4] = tested on: Kochia (Kochia scoparia); assay: Test A postemergence; conditions: Bassia scoparia, post-emergence, 240 h, 125 g ai/ha
Procedure, shortened: as §1

[5] = tested on: ryegrass, Italian (Italian ryegrass, Lolium multiflorum); assay: Test A postemergence; conditions: Lolium multiflorum, post-emergence, 240 h, 125 g ai/ha
Procedure, shortened: as §1

[6] = tested on: corn (Zea mays); assay: Test A postemergence; conditions: Zea mays, post-emergence, 240 h, 125 g ai/ha
Procedure, shortened: as §1

[7] = tested on: pigweed (Amaranthus retroflexus); assay: Test A postemergence; conditions: Amaranthus retroflexus, post-emergence, 240 h, 125 g ai/ha
Procedure, shortened: as §1

[8] = tested on: barnyardgrass (Echinochloa crus-galli); assay: Test A postemergence; conditions: Echinochloa crus-galli, post-emergence, 240 h, 125 g ai/ha
Procedure, shortened: as §1

[9] = tested on: ragweed (common ragweed, Ambrosia elatior); assay: Test A postemergence; conditions: Ambrosia artemisiifolia, post-emergence, 240 h, 125 g ai/ha
Procedure, shortened: as §1

[10] = tested on: wheat (Triticum aestivum); assay: Test A postemergence; conditions: Triticum aestivum, post-emergence, 240 h, 125 g ai/ha
Procedure, shortened: as §1

[11] = tested on: Galium (catchweed bedstraw, Galium aparine); assay: Test A postemergence; conditions: Galium, post-emergence, 240 h, 125 g ai/ha
Procedure, shortened: as §1

[12] = tested on: ducksalad (Heteranthera limosa); assay: Test B flooded paddy test; conditions: Heteranthera limosa, Flood, 250 g ai/ha; scale of 0 to 100 where 0 is no effect and 100 is complete control; read-out: Ducksalad plant response rating
Procedure, shortened: (§2)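 Evaluation by eye, against controls, occurred 13–15 d post-treatment in a greenhouse, using a 0 (no effect) to 100 (complete control) scale. Application was into the paddy water, 3 cm deep over the soil, on 2-leaf plants.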

[13] = tested on: sedge, umbrella (small-flower umbrella sedge, Cyperus difformis); assay: Test B flooded paddy test; conditions: Cyperus difformis, Flood, 250 g ai/ha; scale of 0 to 100 where 0 is no effect and 100 is complete control; read-out: Sedge, Umbrella plant response rating
Procedure, shortened: as §2

[14] = tested on: barnyardgrass (Echinochloa crus-galli); assay: Test B flooded paddy test; conditions: Echinochloa crus-galli, Flood, 250 g ai/ha; scale of 0 to 100 where 0 is no effect and 100 is complete control; read-out: Barnyardgrass plant response rating
Procedure, shortened: as §2

[15] = tested on: rice (Oryra sativa); assay: Test B flooded paddy test; conditions: Oryza sativa, Flood, 250 g ai/ha; scale of 0 to 100 where 0 is no effect and 100 is complete control; read-out: Rice plant response rating
Procedure, shortened: as §2

CON1CC[C@H](c2ccc(F)cc2)[C@@H](C(=O)Nc2cccc(F)c2F)C1=O [Compound 918]
pest or weed control at 125 g/ha [1]: 0% | pest or weed control at 500 g/ha [1]: 40% | pest or weed control at 125 g/ha ([2]; Postemergence, visual injury after approximately 10 d, 0 to 100 scale where 0 is no effect and 100 is complete control, read-out: Plant response rating, Blackgrass): 40% | pest or weed control at 125 g/ha ([3]; Postemergence, visual injury after approximately 10 d, 0 to 100 scale where 0 is no effect and 100 is complete control, read-out: Plant response rating, Foxtail, Giant): 0% | pest or weed control at 125 g/ha ([4]; Postemergence, visual injury after approximately 10 d, 0 to 100 scale where 0 is no effect and 100 is complete control, read-out: Plant response rating, Kochia): 0% | pest or weed control at 125 g/ha ([5]; Postemergence, visual injury after approximately 10 d, 0 to 100 scale where 0 is no effect and 100 is complete control, read-out: Plant response rating, Ryegrass, Italian): 0% | Corn plant response rating (crop injury, 0 = no effect, 100 = complete kill) at 125 g/ha ([6]; Postemergence, visual injury after approximately 10 d, 0 to 100 scale where 0 is no effect and 100 is complete control): 0% | pest or weed control at 125 g/ha ([7]; Postemergence, visual injury after approximately 10 d, 0 to 100 scale where 0 is no effect and 100 is complete control, read-out: Plant response rating, Pigweed): 0% | pest or weed control at 125 g/ha ([8]; Postemergence, visual injury after approximately 10 d, 0 to 100 scale where 0 is no effect and 100 is complete control, read-out: Plant response rating, Barnyardgrass): 0% | pest or weed control at 125 g/ha ([9]; Postemergence, visual injury after approximately 10 d, 0 to 100 scale where 0 is no effect and 100 is complete control, read-out: Plant response rating, Ragweed): 0% | plant injury at 125 g/ha ([10]; Postemergence, visual injury after approximately 10 d, 0 to 100 scale where 0 is no effect and 100 is complete control, read-out: Plant response rating, Wheat): 0% | pest or weed control at 125 g/ha ([11]; Postemergence, visual injury after approximately 10 d, 0 to 100 scale where 0 is no effect and 100 is complete control, read-out: Plant response rating, Galium): 0% | pest or weed control at 250 g/ha [12]: 30% | pest or weed control at 250 g/ha [13]: 0% | pest or weed control at 250 g/ha [14]: 0% | pest or weed control at 250 g/ha [15]: 15%

CN1C[C@H](c2cccc(C3CC3)c2)[C@@H](C(=O)Nc2ccccc2S(C)(=O)=O)C1=O [Compound 817]
pest or weed control at 125 g/ha [1]: 90% | pest or weed control at 500 g/ha [1]: 90% | pest or weed control at 125 g/ha ([2]; postemergence, visual injury rating after approximately 10 d, read-out: Blackgrass plant response rating (0 to 100 scale, 0 no effect, 100 complete control)): 40% | pest or weed control at 125 g/ha ([3]; postemergence, visual injury rating after approximately 10 d, read-out: Foxtail, Giant plant response rating (0 to 100 scale, 0 no effect, 100 complete control)): 90% | pest or weed control at 125 g/ha ([4]; postemergence, visual injury rating after approximately 10 d, read-out: Kochia plant response rating (0 to 100 scale, 0 no effect, 100 complete control)): 0% | pest or weed control at 125 g/ha ([5]; postemergence, visual injury rating after approximately 10 d, read-out: Ryegrass, Italian plant response rating (0 to 100 scale, 0 no effect, 100 complete control)): 30% | plant injury at 125 g/ha ([6]; postemergence, visual injury rating after approximately 10 d, read-out: Corn plant response rating (0 to 100 scale, 0 no effect, 100 complete control)): 50% | pest or weed control at 125 g/ha ([7]; postemergence, visual injury rating after approximately 10 d, read-out: Pigweed plant response rating (0 to 100 scale, 0 no effect, 100 complete control)): 0% | pest or weed control at 125 g/ha ([8]; postemergence, visual injury rating after approximately 10 d, read-out: Barnyardgrass plant response rating (0 to 100 scale, 0 no effect, 100 complete control)): 90% | pest or weed control at 125 g/ha ([9]; postemergence, visual injury rating after approximately 10 d, read-out: Ragweed plant response rating (0 to 100 scale, 0 no effect, 100 complete control)): 0% | plant injury at 125 g/ha ([10]; postemergence, visual injury rating after approximately 10 d, read-out: Wheat plant response rating (0 to 100 scale, 0 no effect, 100 complete control)): 50% | pest or weed control at 125 g/ha ([11]; postemergence, visual injury rating after approximately 10 d, read-out: Galium plant response rating (0 to 100 scale, 0 no effect, 100 complete control)): 40% | pest or weed control at 250 g/ha [12]: 90% | pest or weed control at 250 g/ha [13]: 0% | pest or weed control at 250 g/ha [14]: 60% | pest or weed control at 250 g/ha [15]: 0%
